The subject of assay [1] is CD1 mice challenged with LD90 of LPS. As to the kind of experiment: Endotoxin-induced septic shock (LD90 LPS): survival and lung compliance. The conditions noted are these: for half maximal effective concentration (EC50) on the survival rate: LPS 30 mg/kg bw i.p. (LD90), i.v. once daily, three doses, from 20 hours after LPS, n = 10 mice per group. The class given is in vivo, mouse. Here is the method: To establish the effect of VT-109 on clinically translatable outcomes, we investigated its dose-dependent effect on survival rates in a murine model of septic shock (Fig. 5a, d). In experiments involving endotoxin-induced septic shock, mice were injected intraperitoneally with a lethal dose (LD) of LPS at 30 mg/kg bw, which caused 90% mortality. The treatment cohort of mice received i.v. VT-109 at doses ranging from 1 nmol/kg to 2 µmol/kg bw, which were administered once daily for a total of three doses. All the mice also received fluid resuscitation once a day for three days.
We next examined the effect of VT-109 on lung function at 250 nmol/kg bw, the dose that produced the greatest improvement in survival rates (Fig. 5a). Lung function was assessed by measuring lung compliance in mice challenged with a lethal dose of LPS (Fig. 5c). For the control, we used a non-effective dose of VT-109 at 1 nmol/kg bw, as 90% of the mice died before reaching 48 hours post-LPS treatment if left untreated. The 1 nmol/kg bw dose was not efficacious in our mortality studies but did delay death over a 48-hour period. Static lung compliance was measured at 10 cmH2O on the expiratory limb of a P‒V loop via the Salazar–Knowles equation[49].
In the survival studies, mice received i.p. corn oil at a dose of 0.35 mL two days before the challenge. CD1 mice were injected intraperitoneally with a lethal dose 90 (LD90) of LPS (Santa Cruz Biotechnology). In most experiments, this dose was 30 mg/kg bw; however, it was adjusted for each new batch of LPS in pilot studies. In the survival study, treatment with varying doses of VT-109 (1, 10, 100, 250, 500, and 2000 nmol/kg bw) was initiated 20 hours after the LPS challenge. In the lung compliance study, a non-efficacious dose (1 nmol/kg bw) of VT-109 was used as a control, while 250 nmol/kg bw of VT-109 was used for the experimental group. Both treatments were administered intravenously 20 hours after the LPS challenge. All mice received 1 mL of prewarmed saline daily for 3 days.

The target in assay [2] is full-length EB3 (Homo sapiens, UniProt Q9UPY8). As to the kind of experiment: STD-NMR binding to EB3 (amplification factor). To be noted: versus the linear precursor. An excerpt:
To screen these drug-like compounds for binding to full-length EB3, we employed the saturation transfer difference (STD)-NMR approach as a cell-free throughput screening platform. We were unable to use other methods, such as isothermal titration calorimetry, because of the nature of the EB3 dimer, which dynamically exchanges chains within the dimer—a process influenced by the binding of the C-terminus to its partners, such as the tested peptides. To analyze the STD-NMR data quantitatively, we established the amplification factor (AMPSTD), a change in signal intensity upon saturation that is normalized to ligand abundance (Fig. 1a), as a measure of the binding affinity of the compounds to the target protein EB3. […]
Fig. 1 NMR-based characterization of EB3 inhibitors. a The saturation transfer difference (STD) NMR approach was used to profile peptide binding to EB3. […] The amplification ratio was calculated as follows: AMPSTD = ISTD/INO SAT x {L}, where ISTD is the highest STD signal intensity measured with saturation; INO SAT is the intensity measured for the same signal without saturation; and {L} is the peptide concentration. c ^1H-^15N HSQC spectrum of ^15N-enriched EB3_200-281 alone (black) and in the presence of a 1:1 molar ratio of 109 (cyan). […]

Starred links: 1 amine or outer side, 2 acyl side, 3 side chain; linkers in the order of their positions; H or OH if unused. Positions of bridges follow the written chain, without caps; N, C: chain ends. Non-standard residues stand in square brackets, D forms with d. Residues, ends and D or L forms follow the SMILES beside them. ξ: configuration not given here. X2 = C[C@@](CCCCC=[*:3])(N[*:1])C(=O)[*:2]; Oic = O=C(O)[C@@H]1C[C@@H]2CCCC[C@@H]2N1; GABOB(3R) = O=C(C[C@@H](O)CN[*:1])[*:2]; d(tBuAla) = CC(C)(C)C[C@@H](N)C(=O)O; dVal(3-OH) = CC(C)(O)[C@@H](N)C(=O)O; tBuAla = CC(C)(C)C[C@H](N)C(=O)O; ξVal(3-OH) = CC(C)(O)C(N)C(=O)O; R5 = C=CCCC[C@@](C)(N)C(=O)O; X1 = O=C(CC(O)CN[*:1])[*:2]; 4Amb = NCc1ccc(C(=O)O)cc1

Sequence of full-length EB3 (Q9UPY8 whole entry, species assumed): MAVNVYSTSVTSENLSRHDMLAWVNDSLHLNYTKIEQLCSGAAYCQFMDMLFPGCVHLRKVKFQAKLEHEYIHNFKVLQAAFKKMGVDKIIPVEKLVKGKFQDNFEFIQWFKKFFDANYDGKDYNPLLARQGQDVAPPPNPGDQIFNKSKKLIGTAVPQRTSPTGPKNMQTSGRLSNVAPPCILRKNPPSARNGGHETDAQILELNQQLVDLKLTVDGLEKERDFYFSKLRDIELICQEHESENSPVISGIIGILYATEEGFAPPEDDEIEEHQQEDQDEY

Take `CC(C)(C)C[C@@H]1NC(=O)[C@](C)(NC(=O)c2ccc(CNC(=O)[C@H](N)C(C)(C)O)cc2)CCC/C=C\CCCC[C@@](C)(C(=O)N[C@H](CC(C)(C)C)C(=O)O)NC(=O)CC(O)CNC(=O)[C@@H]2C[C@@H]3CCCC[C@@H]3N2C1=O` (stereo partly drawn) [compound 108, (2R)-2-((8S,18R,21S,23aS,27aS,28aS,Z)-18-(4-(((R)-2-amino-3-hydroxy-3-methylbutanamido)methyl)benzamido)-4-hydroxy-8,18-dimethyl-21-neopentyl-1,6,19,22-tetraoxo-1,2,3,4,5,6,7,8,9,10,11,12,15,16,17,18,19,20,21,22,23a,24,25,26,27,27a,28,28a-octacosahydro-[1,4,7,12]tetraazacyclotetracosino[4,5-a]indole-8-carboxamido)-4,4-dimethylpentanoic acid] (H-[dVal(3-OH)][4Amb][R5][tBuAla][Oic][X1][X2][d(tBuAla)]-OH; staple (Z) 3-7): the “half maximal effective concentration (EC50) on the survival rate” value in assay [1] is given as 308 nmol/kg bw.

As to `CC(C)(C)C[C@@H]1NC(=O)C[C@@H](O)CNC(=O)[C@@H]2C[C@@H]3CCCC[C@@H]3N2C(=O)[C@H](CC(C)(C)C)NC(=O)c2ccc(cc2)CNC(=O)C(C(C)(C)O)NC(=O)[C@@H](Cc2ccccc2)NC1=O` (stereo partly drawn) [compound 109, (1^2S,1^3aS,1^7aS,3S,10S,13R,16S,20R)-13-benzyl-20-hydroxy-10-(2-hydroxypropan-2-yl)-3,16-dineopentyl-1^2,1^3,1^3a,1^4,1^5,1^6,1^7,1^7a-octahydro-1^1H-4,8,11,14,17,22-hexaaza-1(1,2)-indola-6(1,4)-benzenacyclotricosaphane-2,5,9,12,15,18,23-heptaone.] (cyclo([4Amb][tBuAla][Oic][GABOB(3R)][tBuAla][dF][ξVal(3-OH)])), the static lung compliance in assay [1] (LD90 LPS, 250 nmol/kg bw i.v., at 10 cmH2O, n = 3‒4) was 0.043 ± 0.001 ml/cm H₂O. In assay [1], the “half maximal effective concentration (EC50) on the survival rate” value was 30 nmol/kg bw. For the same molecule, the mortality entry in assay [1] (efficacious doses, starting at 100 nmol/kg bw or higher) is listed as “reduced mortality”. Also, the “EC50 on the survival rate, equivalent for humans” value in assay [1] (human equivalent of 30 nmol/kg bw) is reported as 2.2 µg/kg bw. Further, in assay [1] (lowest dose of VT-109 (1 nmol/kg)), the “mice that died within 48 hours post-LPS challenge” value stood at 90%. In addition, the “improvement of EB3 binding by head-to-tail cyclization” value in assay [2] is reported as “approximately 4 fold”.

Values taken from paper PMC12627862, “Therapeutic targeting of endothelial calcium signaling accelerates the resolution of lung injury” (Signal Transduction and Targeted Therapy, 2025).
